ChEMBL document CHEMBL5625259, “Direct-to-biology platform: From synthesis to biological evaluation of SHP2 allosteric inhibitors” (Bioorg Med Chem Lett, 2024)

Molecular target: T1, Tyrosine-protein phosphatase non-receptor type 11 (Homo sapiens, UniProt Q06124)
T1 sequence (Q06124 whole entry): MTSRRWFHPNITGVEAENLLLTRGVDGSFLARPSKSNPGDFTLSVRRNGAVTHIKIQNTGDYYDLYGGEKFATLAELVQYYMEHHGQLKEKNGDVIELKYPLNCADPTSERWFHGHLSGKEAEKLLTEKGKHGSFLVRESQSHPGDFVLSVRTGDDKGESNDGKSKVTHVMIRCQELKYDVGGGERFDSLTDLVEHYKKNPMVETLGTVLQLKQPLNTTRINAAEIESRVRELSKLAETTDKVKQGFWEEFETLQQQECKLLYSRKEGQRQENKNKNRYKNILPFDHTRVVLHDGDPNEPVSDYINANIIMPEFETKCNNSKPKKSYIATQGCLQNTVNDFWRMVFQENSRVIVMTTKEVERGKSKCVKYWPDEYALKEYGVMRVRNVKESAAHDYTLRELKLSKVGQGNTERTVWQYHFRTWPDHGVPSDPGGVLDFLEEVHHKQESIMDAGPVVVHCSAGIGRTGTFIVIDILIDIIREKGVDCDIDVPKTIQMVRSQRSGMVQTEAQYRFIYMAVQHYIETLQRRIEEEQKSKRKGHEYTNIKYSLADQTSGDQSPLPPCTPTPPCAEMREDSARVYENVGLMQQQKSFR
Experiment: Allosteric inhibition of wild type SHP2 (unknown origin) assessed as dephosphorylation of DIFMUP by fluorescence based envision microplate reader analysis

- IC50: > 3.2 µM
Compound: FC(F)(F)c1ncccc1Sc1cnc2[nH]c(N3CCCC4(CNCCO4)C3)nc2n1 (stereo unspecified)
